Reference: patent publication US20240368125A1, “NOVEL PYRAZINYL-TRIAZOLE COMPOUNDS AS PESTICIDES” (Bayer Aktiengesellschaft, priority 2021, published 2024)

Test system: Rhipicephalus (Boophilus) microplus larvae (strain Parkhurst, resistant against synthetic pyrethroids)
Experiment: Rhipicephalus (Boophilus) microplus in-vitro contact test, larval cattle tick
Format: in vivo
Conditions: 1 μg/cm^2 (=100 g/ha), after 48 hours
Procedure: Rhipicephalus (Boophilus) Microplus—In-Vitro Contact Tests Larval Cattle Tick (Strain Parkhurst, Resistant Against Synthetic Pyrethroids
9 mg compound is solved in 1 mL acetone and diluted with acetone to the desired concentration. 250 μL of the test solution is filled in 25 mL glass test tubes and homogeneously distributed on the inner walls by rotation and tilting on a shaking device (2 h at 30 rpm). With a compound concentration of 900 ppm, an inner surface of 44.7 cm^2 and a homogeneous distribution, a dose of 5 μg/cm^2 is achieved.
After the solvent has evaporated, each test tube is filled with 20-50 cattle tick larvae (Rhipicephalus microplus), closed with a perforated lid and incubated in a horizontal position at 85% relative humidity and 27° C. in an incubator. After 48 hours efficacy is determined. The larvae are patted on the ground of the tubes and negative geotactic behavior is recorded.

CNC(=O)c1cnc(-n2ncnc2[C@H](C)NC(=O)c2cc(Cl)cc(S(C)(=O)=O)c2)cn1 [Example I-098] and Cc1nc([C@H](C)NC(=O)c2cc(OC(F)(F)F)cc(C3CC3)c2)n(-c2cnc(C(N)=O)cn2)n1 [Example I-046] are the same in “efficacy (larvae dead or moribund)” value: 100% for the first, 100% for the second.

C[C@H](NC(=O)c1cc(OC(F)(F)F)cc(OC(F)(F)F)c1)c1nc(C2CC2)nn1-c1cnc(C(N)=O)cn1 [Example I-062] and C[C@H](NC(=O)c1cc(C(F)(F)F)cc(C(F)(F)F)c1)c1nc(C2CC2)nn1-c1cnc(C(=O)NC2CC2)cn1 [Example I-056] are the same in “efficacy (larvae dead or moribund)” value: 100% for the first, 100% for the second.

Test system: larvae of the banded cucumber beetle (Diabrotica balteata)
Experiment: Diabrotica balteata spray test
Format: in vivo
Conditions: 100 g/ha (=32 μg/well), wheat seeds, after 7 days
Procedure: Diabrotica balteata—Spray Test
Solvent: 78.0 parts by weight of acetone • • 1.5 parts by weight of dimethylformamide
Emulsifier: alkylarylpolyglycol ether
To produce a suitable preparation of active compound, 1 part by weight of active compound is mixed with the stated amount of solvent, and the concentrate is diluted with water, containing an emulsifier concentration of 1000 ppm, to the desired concentration. Further test concentrations are prepared by dilution with emulsifier containing water.
Soaked wheat seeds (Triticum aestivum) are placed in a multiple well plate filled with agar and some water and are incubated for 1 day to germinate (5 seeds per well). The germinated wheat seeds are sprayed with a test solution containing the desired concentration of the active ingredient. Afterwards each unit is infected with 10-20 larvae of the banded cucumber beetle (Diabrotica balteata).
After 7 days efficacy in % is determined. 100% means all the seedlings have grown up like in the untreated, uninfected control; 0% means none of the seedlings have grown.

Compared with C[C@H](NC(=O)c1cc(Br)cc(S(F)(F)(F)(F)F)c1)c1nc(C2CC2)nn1-c1cnc(C(N)=O)cn1 [Example I-075], C[C@H](NC(=O)c1cc(Cl)cc(S(F)(F)(F)(F)F)c1)c1nc(C2CC2)nn1-c1cnc(C(N)=O)cn1 [Example I-074] is lower in “efficacy (seedlings grown)” value: 100% for the first, 80% for the second.

C[C@H](NC(=O)c1cc(OC(F)(F)C(F)F)cc(S(C)(=O)=O)c1)c1ncnn1-c1cnc(C(=O)NCC#N)cn1 [Example I-096] and C[C@H](NC(=O)c1cc(OC(F)(F)F)cc(S(C)(=O)=O)c1)c1ncnn1-c1cnc(C(=O)NCC#N)cn1 [Example I-086] are the same in “efficacy (seedlings grown)” value: 100% for the first, 100% for the second.

Cc1nc([C@H](C)NC(=O)c2cc(OC(F)(F)F)cc(S(C)(=O)=O)c2)n(-c2cnc(C(=O)NCC#N)cn2)n1 [Example I-087] and C[C@H](NC(=O)c1cc(OC(F)(F)F)cc(S(C)(=O)=O)c1)c1ncnn1-c1cnc(C(=O)N(C)CC#N)cn1 [Example I-104] are the same in “efficacy (seedlings grown)” value: 100% for the first, 100% for the second.

C[C@H](NC(=O)c1cc(OC(F)F)cc(OC(F)F)c1)c1nc(C2CC2)nn1-c1cnc(C(N)=O)cn1 [Example I-070] and C[C@H](NC(=O)c1cc(OC(F)(F)F)cc(OC(F)(F)F)c1)c1nc(C2CC2)nn1-c1cnc(C(N)=O)cn1 [Example I-062] are the same in “efficacy (seedlings grown)” value: 100% for the first, 100% for the second.

C[C@H](NC(=O)c1cc(OC(F)(F)F)cc(S(C)(=O)=O)c1)c1nc(C2CC2)nn1-c1cnc(C(N)=O)cn1 [Example I-095] and Cc1nc([C@H](C)NC(=O)c2cc(OC(F)(F)F)cc(C3CC3)c2)n(-c2cnc(C(N)=O)cn2)n1 [Example I-046] are the same in “efficacy (seedlings grown)” value: 100% for the first, 100% for the second.

Cc1nc([C@H](C)NC(=O)c2cc(OC(F)(F)F)cc(OC(F)(F)F)c2)n(-c2cnc(C(=O)N(C)CC#N)cn2)n1 [Example I-101] and C[C@H](NC(=O)c1cc(OC(F)(F)F)cc(OC(F)(F)F)c1)c1ncnn1-c1cnc(C(=O)N(C)CC#N)cn1 [Example I-105] are the same in “efficacy (seedlings grown)” value: 100% for the first, 100% for the second.

C[C@H](NC(=O)c1cc(Br)cc(C(C)(C)F)c1)c1ncnn1-c1cnc(C(N)=O)cn1 [Example I-063] and C[C@H](NC(=O)c1cc(Cl)cc(S(C)(=O)=O)c1)c1ncnn1-c1cnc(C(=O)NCC#N)cn1 [Example I-088] are the same in “efficacy (seedlings grown)” value: 100% for the first, 100% for the second.

C[C@H](NC(=O)c1cc(C(F)(F)F)cc(C(F)(F)F)c1)c1nc(C2CC2)nn1-c1cnc(C(=O)N(C)C2CC2)cn1 [Example I-058] and C[C@H](NC(=O)c1cc(C(F)(F)F)cc(C(F)(F)F)c1)c1nc(C2CC2)nn1-c1cnc(C(=O)NC2CC2)cn1 [Example I-056] are the same in “efficacy (seedlings grown)” value: 100% for the first, 100% for the second.

C[C@H](NC(=O)c1cc(OC(F)F)cc(OC(F)F)c1)c1ncnn1-c1cnc(C(=O)NCC#N)cn1 [Example I-089] and CNC(=O)c1cnc(-n2nc(C)nc2[C@H](C)NC(=O)c2cc(OC(F)(F)F)cc(C3(C#N)CC3)c2)cn1 [Example I-054] are the same in “efficacy (seedlings grown)” value: 100% for the first, 100% for the second.

For C[C@H](NC(=O)c1cc(C(F)(F)F)cc(C(F)(F)F)c1)c1nc(C2CC2)nn1-c1cnc(C(N)=O)cn1 [Example I-057], the “efficacy (seedlings grown)” value was 100%.
